Literature values as cited in patent US20210145036A1 (priority 2018, published 2021).

Details: in vivo

(1S,5S)-2,6,6-Trimethylbicyclo[3.1.1]hept-2-ene ((−)-α-Pinene)
human pulmonary uptake: 60%
